Source: article PMC8307938, “The Lysozyme Inhibitor Thionine Acetate Is Also an Inhibitor of the Soluble Lytic Transglycosylase Slt35 from Escherichia coli” (Molecules, 2021)

What was measured:
Slt35 = target: T1, Slt35 (Escherichia coli, UniProt P41052); test: intrinsic fluorescence quenching titration (also turbidimetric inhibition assay, IC50 […]); type: binding
T1 construct: gene mltB; N-terminal His-tag
T1 sequence (P41052 19-361): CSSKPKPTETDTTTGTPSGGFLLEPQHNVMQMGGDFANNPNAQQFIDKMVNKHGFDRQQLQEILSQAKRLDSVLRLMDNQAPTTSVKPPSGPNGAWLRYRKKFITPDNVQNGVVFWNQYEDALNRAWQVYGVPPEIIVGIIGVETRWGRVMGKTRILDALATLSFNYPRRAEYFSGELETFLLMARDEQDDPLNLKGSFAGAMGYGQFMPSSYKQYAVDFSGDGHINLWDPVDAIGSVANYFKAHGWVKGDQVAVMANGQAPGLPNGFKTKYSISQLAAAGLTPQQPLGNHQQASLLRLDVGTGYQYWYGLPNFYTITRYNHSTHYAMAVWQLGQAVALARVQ

hen egg white lysozyme = target: T2, hen egg white lysozyme (Gallus gallus, UniProt P00698); test: as above; type: binding
T2 construct: gene LYZ

Asp52 = Asp52 (UniProt position 70, TDGSTDYGILQ); test: NMR; conditions: not stated (presumably free, folded enzyme); cited from earlier work
Glu35 = Glu35 (UniProt position 53, CAAKFESNFNT); test: NMR; conditions: not stated (presumably free, folded enzyme); cited from earlier work

T2 sequence (P00698 19-147): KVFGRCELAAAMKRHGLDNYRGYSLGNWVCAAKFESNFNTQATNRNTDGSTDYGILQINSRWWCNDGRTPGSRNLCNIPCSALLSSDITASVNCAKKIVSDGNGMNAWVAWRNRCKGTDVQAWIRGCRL

Row | Molecule | Kd (Slt35) | Kd (hen egg white lysozyme) | pKa (Asp52) | pKa (Glu35)
1 | Nc1ccc2nc3ccc(N)cc3[s+]c2c1 [thionine acetate] | 17.1 ± 1 µM | 18.6 ± 1.2 µM |  | 
2 | Hen egg white lysozyme (lysozyme C) (Gallus gallus) |  |  | 3.7 | 6.2
